According to patent US10655144B2, “Nucleic acid construct with a p16 promoter that causes a prodrug converting enzyme to be expressed specifically in senescent cells” (Buck Institute for Research on Aging, priority 2012, dated 2020):

What was measured:
senescent cells [1] = experiment: Tissue and organ analyses after sacrifice (adipose cell diameter, muscle fiber diameter, skin thickness, cardiac performance, glomerulosclerosis) in AP20187-treated INK-ATTAC mice; type: in vivo, INK-ATTAC transgenic mice; settings: treated vs untreated
Protocol: (§1) Clearance of therapy-induced senescent cells improves age-sensitive traits and other health parameters in aged animals. […] INK-ATTAC transgenic animals from each of lineage 3 (TG3) and lineage 5 (TG5) were used in the experiments (see Baker et al., Nature, supra). INK-ATTAC transgenic mice were aged 10-12 weeks, and then cohorts of animals were treated with AP20187 or PBS (control) on a weekly basis from the start of treatment.
(§2) When the animals reached 18 months of age, several measures of health and lifespan were taken. Weight, fat mass, activity measurements (treadmill exercise tests to measure distance traveled and duration of exercise) were compared between untreated female mice (n=16) and AP20187-treated female mice (n=21), and compared between untreated male mice (n=19) and AP20187-treated male mice (n=21). Fat mass was greater in both treated females and males compared with the untreated groups (see FIG. 5). […] Treated and untreated mice (5-6 per group) were sacrificed, and adipose cell (AC) diameter, gastrocnemius muscle fiber diameter (μm), abdominal muscle fiber diameter (μm), dermal thickness (μm), subdermal adipose thickness (μm), cardiac performance (introduction of isoproterenol as an exogenous stress in animals prior to sacrifice), and extent of glomerulosclerosis were determined. Treated animals had greater adipose cell diameter (see FIG. 6); better cardiac performance (FIG. 7); and had less sclerotic glomeruli (see FIG. 8) than untreated animals. […] Removal of senescent cells in AP20187-treated animals prevented loss of adipose tissue, prevented loss of cardiac performance, and reduced the extent of glomerulosclerosis.

senescent cells [2] = experiment: Lifespan of wild type INK-ATTAC transgenic mice with senescent cells removed by weekly AP20187; type: in vivo; settings: weekly treatment from 10-12 weeks of age; PBS control 21 months; FIG. 4
Protocol: as §1

senescent cells [3] = experiment: Measures of health at 18 months of age (weight, fat mass, treadmill activity) in AP20187-treated INK-ATTAC mice; type: in vivo, INK-ATTAC transgenic mice
Protocol: as §1, §2

`CC[C@H](C(=O)N1CCCC[C@H]1C(=O)O[C@H](CCc1ccc(OC)c(OC)c1)c1cccc(OCC(=O)NCC(CNC(=O)COc2cccc([C@@H](CCc3ccc(OC)c(OC)c3)OC(=O)[C@@H]3CCCCN3C(=O)[C@@H](CC)c3cc(OC)c(OC)c(OC)c3)c2)CN(C)C)c1)c1cc(OC)c(OC)c(OC)c1` [AP20187] was tested, and the cardiac performance (senescent cells [1]; isoproterenol as exogenous stress prior to sacrifice, FIG. 7) was “better”, the “adipose cell (AC) diameter” value (senescent cells [1]; sacrificed mice, 5-6 per group, FIG. 6) was “greater” and the “abdominal muscle fiber diameter” value (senescent cells [1]; sacrificed mice) was “No significant differences”. The dermal thickness (senescent cells [1]; sacrificed mice) was “No significant differences”, the “gastrocnemius muscle fiber diameter” value (senescent cells [1]; sacrificed mice) was “No significant differences” and the subdermal adipose thickness (senescent cells [1]; sacrificed mice) was “No significant differences”. The “extent of glomerulosclerosis (sclerotic glomeruli)” value (senescent cells [1]; sacrificed mice, FIG. 8) was “less”, the average lifespan (senescent cells [2]) was “approximately 26 months” and the fat mass (senescent cells [3]; treated females and males each vs untreated group of same sex, FIG. 5) was “greater”. For the same compound, the “activity measurements (treadmill exercise tests: distance traveled and duration of exercise)” value (senescent cells [3]; treated vs untreated animals) was “No statistically significant differences” and the weight (senescent cells [3]; treated vs untreated animals) was “No statistically significant differences”.
